Measured values from patent US20230265099A1, “SIK INHIBITORS AND METHODS OF USE THEREOF” (SOLTEGO, INC., priority 2020, published 2023).
Entries after “also recorded” stand apart in the source; their conditions may differ.

Experiments:
[1] = tested on: reconstituted melanized human epidermis (NHEKs and NHEMs-MP melanocytes); assay: Melanin content from Fontana-Masson stained sections of reconstituted melanized human epidermis; type: cell-based; conditions: for melanin content (Fontana-Masson stained sections): % relative to DMSO 0.005%
Method: Based on the results of dose determination studies, 0.3 μg/ml, 0.01 μg/ml and 0.0033 μg/ml doses of SLT-008 were selected for further application in a culture medium of reconstituted melanized human epidermis. The pigmentation effect studies were carried out on epidermis reconstituted with NHEKs (Normal human epidermal keratinocytes, Lonza 00192906) isolated from foreskin of 3 neonatal Caucasian donors and NHEMs-MP melanocytes.
The tissues were cultured at the air-liquid interface in Epilife medium (Fisher Scientific, MEPI500CA) containing specific supplements (with among others Human Keratinocytes Growth Factors, Fisher Scientific S0015 or S001K) and antibiotics (Gentamycin, Fisher Scientific, 15710049). They were maintained in a humid atmosphere at 37° C. with 5% CO2.
Melanocytes were co-cultured with reconstructed epidermis and cultivated at the air-liquid interface during 14 days in culture medium in a humid atmosphere at 37° C. with CO2 5%. SLT-008 was applied in the culture medium at 3 concentrations, during 10 days, from day 4 to day 14 after placement at the air/liquid interface (n=6), with 5 medium refreshes (at day 7, 8, 9, 10 and 11). In order to allow pigmentation of the epidermis, the concentration in BPE (bovine pituitary extract) in culture medium was adapted during the treatments. DMSO at 0.005%, used for the compounds solubilization was used as reference control condition. IBMX at 150 μM and forskolin at 3.33 μM were used as pro-pigmentation reference compounds to validate the experiment. An additional DMSO control at 0.05% corresponding to the solvent of the reference compounds was added as well in the experiment.
At the end of treatments (day 14), a morphology analysis was performed. The epidermis pigmentation was quantified after solvable extraction and quantified through Fontana Masson staining of histologic sections. 6 μm sections of epidermis embedded in paraffin were prepared and stained with Fontana Masson reagents. Fontana Masson staining specifically stains melanin within the epidermis. In order to visualize the epidermis in addition to the melanin, a counterstaining with hemalum/eosin was performed as well. Tissue section staining was performed in three series with one set for each test compound. Slides with sections of epidermis treated with DMSO at 0.005% were put in each set for Fontana Masson staining in order to compare the effects of the SLT-008.
Melanin deposition on 6 μm paraffin sections of each epidermis was stained by Fontana-Masson reagents (VWR-VWRK641295, VWRK641311; Klinipath-641215). […]
For the melanin quantification, 3 pictures of each epidermis were taken and analyzed by using the Leica QWin3 software. […]
Melanin content was determined from Fontana-Masson stained sections (% relative to DMSO 0.005%). […]

[2] = tested on: apoptotic cells in the epidermis of human skin explants; assay: Stripping-induced apoptosis DNA protection study, TUNEL assay on skin explants; type: cell-based; conditions: 0.9% in absolute ethanol, after tape stripping, Day 11, significant
Text: The aim of this study was to perform complementary immunostaining of TUNEL (apoptotic cell marker).
Histological processing: 5-μm-thick sections were made using a Leica RM 2125 Minot-type microtome, and the sections were mounted on Superfrost® histological glass slides. The microscopical observations were realized using a Leica DMLB, an Olympus BX43 or BX63 microscope. Pictures were digitized with a numeric DP72 or DP74 Olympus camera with CellSens storing software.
The staining was semi-quantified by image analysis.
Image analysis method: The images analyses was performed on all the images of the selected batch using CellSens software. Stained surfaces comparisons
The stained surface percentage (Surf %) for the treatment is compared to the untreated condition=>S vs T; SP vs S.

[3] = tested on: human living skin explants; assay: Pigmentation activity on human living skin explants with stripping; type: cell-based
Method: The pigmentation activity of SLT-008 at two concentrations was evaluated on skin using human living skin explants with stripping.
Human skin explants of an average diameter of 11 mm (±1 mm) were prepared on an abdominoplasty from a person with a III phototype. The explants were kept alive in BEM culture medium (BIO-EC's Explants Medium) at 37° C. in a humid, 5%-CO2 atmosphere. The study was performed on human skin tissue, obtained from surgical residues in accord with the Declaration of Helsinki and the article L.1243-4 of the French Public Health Code.
On day 0, the explants of the batches “S” were stripped 5 times using scotch 3M to remove some stratum corneum layers to facilitate the penetration of the tested products. The excipient and the tested products were applied topically on the basis of 2 μl per explant (2 mg/cm^2) and spread using a small spatula on day 0 (D0, after the stripping), D1, D4, D6 and D8.
The culture medium was half renewed (1 ml per well) on D0, D1, D4, D6 and D8. On D0, D1, D4, D5, D6, D7 and D8, the culture media of the irradiated explants (TUV) were replaced by HBSS (Hank's Balanced Saline Solution; 1 ml per explant). Then, the explants of the “TUV” batch were irradiated using a UV simulator Vibert Lourmat RMX 3W with a dose of 2.25 J/cm2 of UVA corresponding to 0.5 MED (minimal erythemal dose) for a phototype II donor. […]

[4] = tested on: melanized reconstructed human epidermis; assay: LDH release assay on melanized reconstructed human epidermis; type: cell-based
Method: Quantification of lactate dehydrogenase (LDH) release from melanized tissue was performed at mid-treatment and at the end of treatment with the SLT-008 to ensure that the selected doses were not cytotoxic for the melanized reconstructed human epidermis. The release of LDH by the culture model was assessed after 5 and 10 days of treatments with the Cytotoxicity Detection KitPLUS (Roche-04744926001) according to the manufacturer's instructions. Briefly, culture supernatants were collected and mixed with LDH detection reactants in 96-well plates for 30 min before measuring optical density at 490 nm with a reference wavelength of 600 nm using a spectrophotometer (GloMax-Promega). This was performed in triplicates of cultures (n=3). […] The effect of these concentrations was thus studied on the tissue pigmentation (FIG. 5).

SIK3(h) = SIK3(h) (Homo sapiens, UniProt Q9Y2K2); assay: Salt Induced Kinase inhibition, radiometric [γ-33P]-ATP filter assay, SIK3; type: biochemical
[5] = tested on: Primary human epidermal keratinocytes (hEK) cocultured with human epidermal melanocytes; assay: Topical application on keratinocyte/melanocyte coculture skin model, Fontana Masson staining; type: cell-based; conditions: single topical application
Method: Primary human epidermal keratinocytes (hEK) were seeded onto suitable carrier matrices and cocultured with human epidermal melanocytes. SLT-8 was solubilized in PEG/Ethanol/Transcutol® at 0.3 mM, 1 mM and 3 mM and applied topically using a mesh to the surface of the models and removed after 4 hours. Test compounds were applied once daily over a period of 4 days. Untreated models and models treated with the vehicle only served as controls. UV irradiated models were used as positive controls. Fontana Masson staining was conducted to visualize pigmentation effects. Fontana-Masson staining is routinely used to visualize argentaffin substances such as melanin, argentaffin granules and some neurosecretory granules. Melanin is a nonlipid, non-hematogenous pigment. It is a brown-black pigment present normally in the hair, skin, retina, iris, and certain parts of the central nervous system. Argentaffin granules are found in carcinoid tumors. The argentaffin cell granules or melanin stain black. Nuclei stain pink-red. The cytoplasm stains pale pink.

reconstructed epidermis = assay: Melanin content by chemical (solvable) extraction of reconstructed epidermis; type: cell-based, human; conditions: applied at 1 and 0.1 μg/ml and more so at 0.3 μg/ml
Method: Using similar methods described previously in this Example, the experiments were repeated. At the end of these treatments, tissues (n=3) were removed from their inserts and immerged in a solvable extraction solution (Perkin Elmer-NJTSRN8010060) and heated at 80° C. for 1 h. The optical density of the supernatants was measured at 490 nm with a spectrophotometer (GloMax-Promega) and the melanin content was determined by comparison with a standard curve of synthetic melanin (Sigma-M8631)

[6] = tested on: reconstituted melanized epidermis; assay: Hematoxylin/eosin (H/E) morphology of reconstituted melanized epidermis; type: cell-based, human; conditions: 3 selected doses (0.3, 0.01, 0.0033 μg/ml) in culture medium
Method: Next, absence of toxicity of the three doses was evaluated in reconstituted melanized epidermis by hematoxylin/eosin (H/E) staining of histologic sections.
At the end of the treatments with the test compounds, 3 tissues per dose (n=3) were fixed in 4% formaldehyde, dehydrated and paraffin embedded. Sections of 6 μm of epidermis were stained with eosin and hematoxylin (H/E). Slides were mounted with specific medium and examined with a Leica DM2000 photomicroscope coupled to a digital camera (Zeiss).

Sequence of SIK3(h) (Q9Y2K2 whole entry): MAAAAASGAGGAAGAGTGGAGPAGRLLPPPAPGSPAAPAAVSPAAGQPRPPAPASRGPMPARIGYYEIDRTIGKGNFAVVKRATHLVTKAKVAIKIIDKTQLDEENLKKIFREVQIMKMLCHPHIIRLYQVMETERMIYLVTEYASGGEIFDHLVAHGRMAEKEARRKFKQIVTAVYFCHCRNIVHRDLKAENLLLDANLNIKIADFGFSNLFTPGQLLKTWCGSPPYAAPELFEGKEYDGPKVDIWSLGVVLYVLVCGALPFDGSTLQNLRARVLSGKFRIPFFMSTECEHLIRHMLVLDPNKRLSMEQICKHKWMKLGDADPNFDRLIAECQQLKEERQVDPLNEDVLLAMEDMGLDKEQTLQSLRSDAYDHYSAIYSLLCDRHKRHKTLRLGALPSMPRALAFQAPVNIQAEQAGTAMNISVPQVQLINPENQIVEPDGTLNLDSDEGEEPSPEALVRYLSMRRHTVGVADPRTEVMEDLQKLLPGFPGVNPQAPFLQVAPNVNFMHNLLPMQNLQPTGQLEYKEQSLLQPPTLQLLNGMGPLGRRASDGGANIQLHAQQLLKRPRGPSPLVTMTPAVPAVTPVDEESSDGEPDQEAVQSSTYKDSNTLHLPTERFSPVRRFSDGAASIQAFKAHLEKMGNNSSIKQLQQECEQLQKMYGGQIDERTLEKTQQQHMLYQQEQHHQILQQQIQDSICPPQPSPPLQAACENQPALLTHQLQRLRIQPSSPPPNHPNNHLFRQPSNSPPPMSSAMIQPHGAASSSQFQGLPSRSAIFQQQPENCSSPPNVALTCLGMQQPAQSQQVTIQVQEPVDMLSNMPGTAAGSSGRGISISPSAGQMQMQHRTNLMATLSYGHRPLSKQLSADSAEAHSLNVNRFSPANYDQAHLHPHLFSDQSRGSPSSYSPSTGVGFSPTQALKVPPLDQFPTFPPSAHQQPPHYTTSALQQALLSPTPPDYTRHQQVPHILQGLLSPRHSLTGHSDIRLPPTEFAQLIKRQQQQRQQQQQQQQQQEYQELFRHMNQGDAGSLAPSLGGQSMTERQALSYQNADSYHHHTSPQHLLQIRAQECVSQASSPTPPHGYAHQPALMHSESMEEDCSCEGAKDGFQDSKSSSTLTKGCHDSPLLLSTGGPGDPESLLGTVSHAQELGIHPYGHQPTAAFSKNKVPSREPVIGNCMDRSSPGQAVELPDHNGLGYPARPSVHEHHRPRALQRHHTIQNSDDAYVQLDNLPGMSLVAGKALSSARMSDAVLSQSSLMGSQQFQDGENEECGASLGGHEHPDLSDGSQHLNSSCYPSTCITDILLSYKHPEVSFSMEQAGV

Compound	pigmentation (Fontana-Masson) ([1]; positive controls: forskolin 3.33 μM, IBMX 150 μM, vs DMSO 0.05%)	decrease of apoptotic cell numbers (TUNEL stained surface) [2]	cell viability ([3]; 0.5% and 0.9% topical, compared to the stripped batch)	melanin increase ([3]; 0.9% dose, topical, stripped explants, significant (p<0.1))	melanin content (Fontana-Masson stained sections) ([1]; 0.011 μg/ml)	pigmentation / melanin content (Fontana-Masson) ([1]; 0.3 μg/ml vs DMSO 0.005%)	melanin content (Fontana-Masson stained sections) ([1]; 0.3 μg/ml)	LDH release from tissues ([4]; 0.3 μg/ml, after 10 days of treatment, without reaching the set cytotoxic level)	tissue integrity (LDH release) ([4]; application for 10 days)	IC50 (SIK3(h); Estimated IC50 Values, SIK3(h), ATP 45 μM)	IC50 (SIK3(h); SIK3)	melanin pigmentation (Fontana Masson staining) ([5]; 1 mM in PEG/Ethanol/Transcutol)	melanin pigmentation (Fontana Masson staining) ([5]; 3 mM in PEG/Ethanol/Transcutol)	melanin transfer to keratinocytes and nuclear capping ([5]; 3 mM)	melanin content by chemical extraction (reconstructed epidermis)	morphologic alteration (H/E staining) [6]
CC(C)Cn1c(=O)n(C)c(=O)c2[nH]cnc21 [IBMX, reference compound]	increased															
Cc1cccc(C)c1N1Cc2cnc(Nc3ccc(N4CCN(C)CC4)cc3)nc2N(C23CC4CC(CC(C4)C2)C3)C1=O [SLT-008, 1-((3s,5s,7s)-adamantan-1-yl)-3-(2,6-dimethylphenyl)-7-((4-(4-methylpiperazin-1-yl)phenyl)amino)-3,4-dihydropyrimido[4,5-d]pyrimidin-2(1H)-one]		97%	no modification of cell viability	36%	125.6+/−15.4%	significantly increased; also recorded: significant increase	129+/−5.7%	Slight and significant increase	did not induce relevant alteration of the tissue integrity	> 20 nM	> 20 nM	induced melanin pigment dots at the stratum lucidum level	induced melanin pigment dots at the stratum lucidum level	induced melanin transfer to keratinocytes and nuclear capping was observed	increased, with a dose effect	no morphologic alteration
